One assay has as its target T1, RARγ (Homo sapiens, UniProt P13631).
T1 construct: made in house; host or cells: baculovirus expression system
T1 sequence (P13631 1-454): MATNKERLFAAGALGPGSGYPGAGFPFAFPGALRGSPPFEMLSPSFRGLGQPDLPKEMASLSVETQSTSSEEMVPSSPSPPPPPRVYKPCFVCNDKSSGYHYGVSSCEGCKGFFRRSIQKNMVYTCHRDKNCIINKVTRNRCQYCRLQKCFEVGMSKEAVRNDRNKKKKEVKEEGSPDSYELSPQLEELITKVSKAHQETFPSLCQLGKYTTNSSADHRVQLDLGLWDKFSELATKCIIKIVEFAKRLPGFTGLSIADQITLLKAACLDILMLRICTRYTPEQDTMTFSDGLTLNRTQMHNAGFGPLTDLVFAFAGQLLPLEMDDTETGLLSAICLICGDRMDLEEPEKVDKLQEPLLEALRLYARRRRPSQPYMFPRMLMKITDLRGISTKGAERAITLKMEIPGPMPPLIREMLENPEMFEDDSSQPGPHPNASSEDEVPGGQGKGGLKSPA
T1 sequence (P19793 1-462 partner): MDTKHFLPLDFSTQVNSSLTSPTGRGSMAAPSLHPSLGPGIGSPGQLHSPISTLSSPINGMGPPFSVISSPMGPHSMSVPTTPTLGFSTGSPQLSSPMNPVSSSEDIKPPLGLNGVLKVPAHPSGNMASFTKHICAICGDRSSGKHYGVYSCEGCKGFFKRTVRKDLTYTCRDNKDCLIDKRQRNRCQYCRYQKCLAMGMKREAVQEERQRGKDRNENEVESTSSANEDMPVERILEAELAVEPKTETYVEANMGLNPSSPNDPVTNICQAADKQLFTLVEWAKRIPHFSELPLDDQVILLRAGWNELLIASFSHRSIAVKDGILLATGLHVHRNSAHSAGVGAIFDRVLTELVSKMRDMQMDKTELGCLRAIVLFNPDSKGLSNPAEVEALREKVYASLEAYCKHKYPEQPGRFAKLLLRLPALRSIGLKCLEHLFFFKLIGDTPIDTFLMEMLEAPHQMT
Description: RARγ binding assay (SPA, 3H-TTNPB competition). Particulars: RARγ/RXRα heterodimer. From the text: Compounds can be evaluated for binding to RARα, β and γ by measuring their ability to competitively bind to the RAR receptors when dimerized with the binding partner RXRα. Competitive binding assays may be carried out by Scintillation Proximity Assay (SPA) technology using the RARα, β or γ heterodimer (with RXRα as a partner with all the RARs) receptors prepared in a baculovirus expression system. Use the biotinylated oligonucleotide: 5′-[…]-3′ for binding of receptor to yttrium silicate streptavidin-coated SPA beads. Per well, preincubate […] with 82.7 μg SPA beads in a binding buffer containing 10 mM HEPES pH 7.8, 80 mM KCl, 0.5 mM MgCl2, 1 mM DTT, 0.5% CHAPS and 16.6 μg bovine serum albumin for 30 min at room temperature. Then spin the mixture at 2,000 rpm for 3 min to pelletize the beads-oligo mix. Remove the supernatant and resuspend the beads-oligo pellet in the same binding buffer as above, but which in addition now also contain 14% glycerol, 5 μg of sheared salmon sperm DNA, 0.5 μg of RARα, 1.0 μg of RARβ, or 0.25 μg of RARγ receptor, respectively. Carry out the binding assays in the presence of ˜11.3 μCi of ^3H 4-[(E)-2-(5,6,7,8-tetrahydro-5,5,8,8-tetramethyl-2-naphthalenyl)-1-propenyl]benzoic acid (TTNPB), and multiple concentrations of test compound ranging from (5 nM to 10 μM). Non-specific binding may be determined in the presence of 1 μM unlabeled TTNPB. Use the data to calculate an IC50 for compounds after fitting the dose-response curves to a 4-parameter logistic fit. Use the Cheng-Prusoff equation to convert IC50 (nM) values for compounds to Ki, and the Kd may be determined by saturation binding.

The subject of another assay is MIA model of pain. Description: Monosodium iodoacetate (MIA) model of pain. Format: in vivo, rat. The note with it: rats, dose of 0.1 mg/kg, dosed once on day 9 post MIA, measured 2 h post dosing. The text has this:
The injection of monoiodoacetic acid (MIA) into the knee joint of rats produces an acute inflammatory insult, which then develops into chronic degeneration of the joint tissues in the injected joint. The pain resulting from the joint injury can be measured via differential weight bearing of the hind legs using an incapacitance tester. […] Efficacy is routinely measured by the ability of a compound to partially normalize weight distribution. The maximal efficacy that can be achieved in the standard MIA is dependent on the mechanism being studied; however, for many mechanisms the maximal efficacy achieved results in a 25%-50% reduction in the weight bearing differential.
Use Male Lewis rats approximately 150-170 g and between 6-8 weeks of age. Let the animals acclimate to the environment for at least 72 h. […]
Incapacitance Tester Readings—Incapacitance Testers (Columbus Instruments International, Columbus, Ohio) for weight bearing measurements. […] A total of three one second readings are taken to reflect the amount of pressure exerted on both the left and right hind paw while the rat is positioned in the chamber. The force exerted by each hind paw is measured in grams and calculated as the left hind paw weight distribution-right hind paw weight distribution. Thus, the final paw weight distribution for each animal is an average of the three one second readings. […]

As usually defined, the Ki is a measure of affinity in units of concentration, obtained from inhibition or displacement. A low value points to tighter binding. `CC(C)Sc1cc(-c2cc(-c3ccc(C(=O)O)cc3)nn2-c2ccc(C(=O)N(C)C)cc2)cc(C(C)(C)C)c1` [Example 12, 4-[5-(3-tert-Butyl-5-isopropylsulfanyl-phenyl)-1-[4-(dimethylcarbamoyl)phenyl]pyrazol-3-yl]benzoic Acid] gave a Ki on RARγ of 3.06 nM. `CC(C)(C)c1cc(-c2cc(-c3ccc(C(=O)O)cc3)nn2-c2ccc(C(=O)N3CCOCC3)cc2)cc(C(C)(C)C)n1` [Example 8, 4-[5-(2,6-Di-tert-butyl-4-pyridyl)-1-[4-(morpholine-4-carbonyl)phenyl]pyrazol-3-yl]benzoic acid] registered a Ki at RARγ of 1.58 nM.

For the molecule `CC(C)(C)c1cc(-c2cc(-c3ccc(C(=O)O)cc3)nn2-c2ccc(S(C)(=O)=O)cc2)cc(C(C)(C)C)c1` [Example 19, 4-[5-(3,5-Di-tert-butylphenyl)-1-(4-methylsulfonylphenyl)pyrazol-3-yl]benzoic Acid], at RARγ, the affinity corresponds to a Ki of 2.76 nM. Regarding `CN1CCN(C(=O)c2ccc(-n3nc(-c4ccc(C(=O)O)cc4)cc3-c3cc(C(C)(C)C)cc(C(C)(C)C)c3)cc2)CC1` [Example 1, 4-[5-(3,5-Di-tert-butylphenyl)-1-[4-(4-methylpiperazine-1-carbonyl)phenyl]pyrazol-3-yl]benzoic Acid], the “inhibition of pain (hind paw weight bearing differential) compared to vehicle” value in the assay on MIA model of pain is “significantly inhibits pain”. The molecule further came in with a Ki on RARγ of 1.69 nM.

The values are drawn from US20140275049A1, “SUBSTITUTED PYRAZOLE ANALOGS As RAR ANTAGONISTS” (Eli Lilly and Company, priority 2011, published 2014).
